Assay results published in PMC4696656, “Insights into the Mechanism of Action of Bactericidal Lipophosphonoxins” (PLoS ONE, 2015).
≈ marks a conversion by molar mass, not a printed value. Where “and” joins values, the source holds several entries; their conditions need not be identical. Identical values can stand only once. Like-named read-outs stand apart in the source and are kept apart here.

Experiments:
[1] = tested on: Clostridium perfringens CCM 4435; experiment: microbe, parasite or virus in culture; format: cell-based; conditions: CCM4435
[2] = tested on: Peptostreptococcus anaerobius; experiment: MIC against anaerobic bacteria, tube dilution method; format: cell-based; conditions: anaerobic conditions, 35°C, 48 h (confirmed 72 h)
[3] = Carboxyfluorescein leakage assay, LUV from bacterial lipids; format: biochemical, Bacillus subtilis; conditions: for Hill coefficient n, rapid initial phase of CF release: LPPO 0.8 mg/L, 60 μM phospholipid, 25°C
Protocol: Bacterial phospholipids were extracted with hexane/2-propanol (3:2, v/v) mixture from B. subtilis 168 cell biomass (2000 ml of culture in LB medium) harvested in exponential phase by rapid filtration (Synpor no. 5 filter, Pragochema, Czech Republic). Phospholipids from human erythrocytes (0.5 ml, volunteer blood donor) were extracted with chloroform/2-propanol mixture (7:11, v/v) after hemolysis using distilled water. After evaporation of the solvent in vaccuo at 40°C, the phospholipids were dissolved in chloroform, filtered through glass fiber filters (Whatman) and concentrated under a stream of nitrogen. The lipid samples were stored at -80°C and used for liposome preparation.
Vesicles to be used in the carboxyfluorescein (CF) leakage assay were prepared by mixing the appropriate amount of lipids (1 mg/ml) with chloroform/methanol 2:1 (v/v). The solvent was subsequently evaporated under a nitrogen gas stream obtaining a thin film on the walls of a glass tube. The hydration procedure in a buffer containing 50 mM CF, 5 mM HEPES pH 7.4 lasted for 60 min at 40°C, interrupted by thorough vortexing to form multilamellar vesicles. Large unilamellar vesicles (LUV) were prepared by repeated extrusion of the multilamellar vesicles through 100 nm polycarbonate filters (Avestin) using the LiposoFast Basic apparatus (Avestin, Canada). Vesicles were separated from nonencapsulated dye by gel filtration on Sephadex G-50 using 100 mM NaCl, 0.5 mM Na2EDTA and 5 mM HEPES, pH 7.4 as elution buffer. Fractions with the highest content of the entrapped dye were pooled and dissolved in the same buffer to the final phospholipid concentration of 60 μM.
The release of vesicle contents after adding LPPO solutions was evaluated by the increased fluorescence intensity of CF released into the milieu which we express as the percentage of leakage. […] Maximum release of CF fluorescence (F max) was induced by lysing the vesicles with 0.1% (v/v) Triton X-100. Fluorescence intensity was monitored in time (excitation at 480 nm, emission at 515 nm) at 25°C using FluoroMax-3 (Jobin Yvon, Horriba) spectrofluorometer. The following equation was used to calculate the percent of CF leakage: % CF leakage = [(F–F 0)/(F max−F 0)] × 100, where F is the actual fluorescence intensity and F 0 is the fluorescence intensity before addition of the permeabilizing agent. Using Fityk software the time courses of liposome lysis were fitted by a function: α(1-exp(-t/τ))^n, where t is the time, α is the amplitude of the effect, τ is the time constant of the effect, and n is Hill coefficient (S3 Fig).

[4] = Conductance measurements in planar lipid membranes (BLM); format: biochemical; conditions: 5 mg/L, 1M KCl, 10 mM Tris, pH 7.4, 45 mV
Protocol: A Teflon chamber was divided into two compartments connected by a circular aperture of about 0.5 mm in diameter. Black lipid bilayer membranes were formed by painting a solution of 3% (w/v) asolectin (type IIS phosphatidylcholine; Sigma-Aldrich) in n-decane/butanol (9:1, v/v) across the hole. Both compartments contained 2 ml of 10 mM Tris, 1M KCl, pH 7.4. The temperature was kept at 25°C. Tested LPPO was added to the cis side of the membrane at a concentration of 5 mg/L. The membrane current was measured with Ag/AgCl electrodes (Theta) with salt bridges (applied voltage 45 mV, cis positive), amplified by LCA-200-100G or LCA-4k-1G amplifier (Femto) and digitized by KPCI-3108 card (Keithly). The signal was processed by QuB software. The histograms of single pore conductance was calculated from at least 500 events using a 50 pS bin size and fitted with Gaussian functions using Fityk software.

[5] = Solubility in water; format: physicochemical
[6] = Critical micellar concentration (conductometry); format: physicochemical; conditions: 37°C
Protocol: Critical micellar concentration (CMC) values were measured (using conductometry method, COND 7, XS Laboratories instrument) and calculated according to literature procedure. LogD values were calculated using software package ACD Labs.

[7] = tested on: Salmonella typhimurium TA98 and TA100; experiment: Ames test for genotoxicity (Salmonella/microsome reversion assay, without S9); format: cell-based; conditions: at relevant concentrations, without metabolic activation
Protocol: The Salmonella/microsome reversion assay was conducted using the plate incorporation procedure described by Marona and Ames. The Ames test was performed utilizing two different bacterial strains of Salmonella typhimurium: strain TA98 for frame-shift mutations and strain TA100 for base-pair substitution. All strains were maintained and stored according to the standard procedures. All samples were tested without metabolic activation (S9) to detect direct mutagenic compounds. The test was performed with plate incorporation method in duplicate at the increasing concentrations. The plates were incubated at 37°C for 72 h in the dark. The number of his+ revertants was estimated with the counter. Results were expressed as mutation ratios (Φ) calculated as the number of colonies on test plates/number of colonies on solvent control plates. A compound is considered mutagenic when Φ is more than 2 and a dose–response effect is evident.

[8] = tested on: Enterococcus faecalis CCM 4224; experiment: Induction of resistance by repeated passages, MIC after each step; format: cell-based
[9] = tested on: Staphylococcus aureus CCM 4223; experiment: MIC, standard microdilution method; conditions: CCM4223, 24 h
[10] = tested on: Bacillus subtilis; experiment: MIC, standard microdilution method; conditions: Bacillus subtilis
[11] = tested on: S. aureus MRSA 4591; experiment: MIC, standard microdilution method; conditions: Staphylococcus aureus, 24 h
[12] = tested on: Staphylococcus haemolyticus 16568; experiment: MIC, standard microdilution method; conditions: Staphylococcus haemolyticus, 16568, 24 h
[13] = tested on: Enterococcus faecium VanA 419/ana; experiment: MIC, standard microdilution method; conditions: VANA419/ANA, 24 h
[14] = tested on: Staphylococcus epidermidis 8700/B; experiment: MIC, standard microdilution method; conditions: 24 h
[15] = CCM4224, read-out: MIC after induction step, step 1
[16] = CCM4224, read-out: MIC after induction step, step 2
[17] = CCM4224, read-out: MIC after induction step, step 3
[18] = CCM4224, read-out: MIC after induction step, step 4
[19] = CCM4224, read-out: MIC after induction step, step 5
[20] = CCM4224, read-out: MIC after induction step, step 6
[21] = CCM4224, read-out: MIC after induction step, step 7
[22] = CCM4224, read-out: MIC after induction step, step 8
[23] = CCM4224, read-out: MIC after induction step, step 9
[24] = CCM4224, read-out: MIC after induction step, step 10
[25] = CCM4224, read-out: MIC after induction step, step 11
[26] = CCM4224, read-out: MIC after induction step, step 12
[27] = CCM4224, read-out: MIC after induction step, step 13
[28] = CCM4224, read-out: MIC after induction step, step 14

Compound	MIC [1]	MIC [2]	Hill coefficient n, rapid initial phase of CF release [3]	most frequent single pore conductance step [4]	solubility [5]	CMC in H2O [6]	genotoxicity (mutagenic potential) [7]	MIC [8, 15]	MIC [8, 16]	MIC [8, 17]	MIC [8, 18]	MIC [8, 19]	MIC [8, 20]	MIC [8, 21]	MIC [8, 22]	MIC [8, 23]	MIC [8, 24]	MIC [8, 25]	MIC [8, 26]	MIC [8, 27]	further results
CCCCCCCCCCCCCCCCOP(=O)(CCN1C[C@@H](O)[C@H](O)C1)OC[C@H]1O[C@@H](n2ccc(=O)[nH]c2=O)[C@H](O)[C@@H]1O (some centres unmarked) [DR5026]	12.5 mg/L (≈ 18.9 µM)	1.56 mg/L (≈ 2.36 µM)	0.5 ± 0.2	310 ± 128 pS	> 10 mg/mL	4 mM and 3 g/L	Neither of the two compounds was found to be genotoxic	6.2 mg/L (≈ 9.37 µM)	6.2 mg/L (≈ 9.37 µM)	6.2 mg/L (≈ 9.37 µM)	6.2 mg/L (≈ 9.37 µM)	6.2 mg/L (≈ 9.37 µM)	12.5 mg/L (≈ 18.9 µM)	12.5 mg/L (≈ 18.9 µM)	12.5 mg/L (≈ 18.9 µM)	12.5 mg/L (≈ 18.9 µM)	12.5 mg/L (≈ 18.9 µM)	12.5 mg/L (≈ 18.9 µM)	12.5 mg/L (≈ 18.9 µM)	12.5 mg/L (≈ 18.9 µM)	fit Hill coefficient n, initial phase f(x) ([3]; S3 Fig data set): 0.6; fit Hill coefficient n, latter phase g(x) ([3]; S3 Fig data set): 3.1; fit amplitude α, initial phase f(x) of liposome lysis ([3]; S3 Fig data set): 29.7; fit amplitude α, latter phase g(x) of liposome lysis ([3]; S3 Fig data set): 76.4; fit time constant τ, initial phase f(x) ([3]; S3 Fig data set): 175.5 s; fit time constant τ, latter phase g(x) ([3]; S3 Fig data set): 28.2 s; MIC [8, 28]: 12.5 mg/L (≈ 18.9 µM); MIC [9]: 25 mg/L (≈ 37.8 µM); MIC ([10]; 24 h): 3.12 mg/L (≈ 4.72 µM); MIC ([10]; read-out: MIC against wt B. subtilis, B. subtilis 168, as stated for the resistance selection experiment): ~3 mg/L (≈ 4.53 µM); MIC [11]: 25 to 50 mg/L (≈ 37.8 to 75.6 µM); MIC [12]: 50 mg/L (≈ 75.6 µM); MIC [13]: 3.12 mg/L (≈ 4.72 µM); MIC [14]: 3.12 mg/L (≈ 4.72 µM)
CCCCCCCCCCCCCCCCOCCCOP(=O)(CCN1C[C@@H](O)[C@H](O)C1)OC[C@H]1O[C@@H](n2ccc(=O)[nH]c2=O)[C@H](O)[C@@H]1O (some centres unmarked) [DR5047]	12.5 mg/L (≈ 17.4 µM)	1.56 mg/L (≈ 2.17 µM)	0.7 ± 0.1	70 ± 37 pS	> 10 mg/mL	3 mM and 2 g/L	Neither of the two compounds was found to be genotoxic	12.5 mg/L (≈ 17.4 µM)	12.5 mg/L (≈ 17.4 µM)	12.5 mg/L (≈ 17.4 µM)	12.5 mg/L (≈ 17.4 µM)	25 mg/L (≈ 34.7 µM)	25 mg/L (≈ 34.7 µM)	25 mg/L (≈ 34.7 µM)	25 mg/L (≈ 34.7 µM)	25 mg/L (≈ 34.7 µM)	50 mg/L (≈ 69.5 µM)	25 mg/L (≈ 34.7 µM)	25 mg/L (≈ 34.7 µM)	25 mg/L (≈ 34.7 µM)	further conductance states observed [4]: 270 ± 79 pS and 510 ± 77 pS; MIC [8, 28]: 25 mg/L (≈ 34.7 µM); MIC [9]: > 200 mg/L; MIC ([10]; 24 h, 35°C, brain heart infusion broth): 6.25 mg/L (≈ 8.68 µM); MIC [11]: > 200 mg/L; MIC [12]: > 200 mg/L; MIC [13]: 6.25 mg/L (≈ 8.68 µM); MIC [14]: 3.12 mg/L (≈ 4.34 µM)
